Data on one compound can be found in patent US10154991B2, “Anesthetic compounds and related methods of use” (priority 2012, dated 2018).

The ED50 is the dose that gives a 50% effect, or the effect in half of the subjects.

Data set [1] has as its system rats. Briefly: loss of righting reflexes (LORR) assay after IV bolus.
Procedure: Adult male Sprague-Dawley rats (230-350 gm) were purchased from Charles River Laboratories (Wilmington, Mass.) and housed in the Massachusetts General Hospital Center for Comparative Medicine animal care facility. All drugs were administered through a femoral venous catheter pre-implanted by the vendor prior to animal delivery to our animal care facility.
Immediately after injection, rats were turned supine. […] A stopwatch was used to measure the duration of LORR, which was defined as the time from drug injection until the animal spontaneously righted itself.
Data set [2] has as its system beagle dogs. As to conditions: dogs. The method, then: A pilot study was conducted in dogs to assess anesthesia induced by cyclopropyl-MOC-metomidate continuous infusion without a bolus induction dosing. Two dogs received cyclopropyl-MOC-metomidate as a 1 mg/kg/min IV infusion without prior bolus administration.
Anesthesia induction was determined using the methods described above.
Etomidate was administered to dogs at IV bolus doses ranging from 0.25 to 2 mg/kg. Anesthesia in the dogs was measured as described above. […] The bolus dose of 2 mg/kg was adopted to induce anesthesia prior to subsequent continuous infusions.
Propofol was administered to dogs as an IV bolus dose of 5 mg/kg to induce anesthesia followed by a continuous infusion at 0.4 mg/kg/min.

The test system of data set [3] is adrenal cortisol production. The method, then: Dexamethasone (0.01 mg/kg) was administered two hours before the first administration of ACTH and re-administered every 2 hours to maintain suppression. Dexamethasone pretreatment suppresses the hypothalamo-hypophyseal axis to prevent endogenous ACTH release and subsequent adrenocortical steroid secretion. […] Synthetic ACTH (Synacthen, 250 μg) was then administered at times after test substance administration to evaluate the effects of the test substance on the release of the adrenal steroid, cortisol.
All study methods described for Study 1 were repeated, except the ACTH administration at the end of infusion was omitted.

Data set [4] deals with ICR mice. Briefly: In vivo sedative/hypnotic testing, IV bolus, mice. Also noted: species or system mouse. As to conditions: mice. The method, then:
(§1) Animals were housed in a dedicated room at the vivarium of VivoPath Inc., located at Redstone Center, 55 Union Street, Worcester, Mass. Housing and care was as specified in the USDA Animal Welfare Act (9 CFR, Parts 1, 2, and 3) and as described in the Guide for the Care and Use of Laboratory Animals from the National Research Council. Environmental conditions of housing rooms are set at the following ranges: temperature: 70±7° F. (22±4° C.), humidity: 50±20%, light cycle: 12-hour light/12-hour dark cycle—lights on at 7 am and off at 7 pm., air changes: ten or more air changes per hour with 100% fresh air. The animals' body weights were measured prior to the first dose on each experimental day.
Adult ICR mice (20-30 g) were purchased from Harlan (South Easton, Mass.). Drugs were administered as intravenous bolus injection in a tail vein.
(§2) Drugs were prepared in either dimethylsulfoxide/saline or saline vehicle or hydroxypropyl-β-cyclodextrin (20% in water, pH 7.0) solution and were administered as an intravenous bolus injection. Animals received 1-4 doses of drug(s) during an experimental day, either ascending doses or different drugs. Doses were administered at intervals equal to the longer of 1 h or 10-times the duration of apparent sedative/hypnotic effects from the previous dose. The sedative/hypnotic properties of the drugs were evaluated by observation of the rats, ranging from mild excitation, mild sedation apparent due to reduced activity, and moderate sedation to hypnosis reflected by loss of righting reflex (LORR, the ability to place rear and hind legs under the body, as well as attenuation/loss of nociceptive reflexes).

The conditions of data set [5]: From Pejo et al.; cited from earlier work.
The subject of data set [6] is Sprague-Dawley rats. Briefly: In vivo sedative/hypnotic testing, IV bolus, rats. The conditions noted are these: rats. Details: species or system rat. The method, then: as §1
Adult male Sprague-Dawley rats (225-300 g) were purchased from Harlan (South Easton, Mass.).
as §2

For the compound `CCOC(=O)c1cncn1[C@H](C)c1ccccc1` [Etomidate, (R)-ethyl-1-(1-phenylethyl)-1H-imidazole-5-carboxylate, reference compound], the ED50 in data set [1] (Rattus norvegicus, iv, read-out: ED50 ± SD) was 0.53 ± 0.17 mg/kg. In data set [1] (duration of LORR vs log dose, rats), the “Slope of Duration vs. Log Dose ± SD” value is given as 24±4.7 min/(log mg/kg). Also, the “involuntary movements during recovery” value in data set [2] is recorded as “extended periods of involuntary movements”. Also, the “bolus dose range inducing anesthesia” value in data set [2] (IV bolus 0.25 to 2 mg/kg tested) lay within 0.5 to 2 mg/kg. In addition, the “minimum initial effective continuous infusion dose rate” value in data set [2] (after 2 mg/kg bolus) is listed as 0.15 mg/kg/min. In addition, the “respiratory effect during infusion” value in data set [2] (after approximately 30 minutes at 0.15 mg/kg/min) is “decrease in respiratory rate”. Further, in data set [2] (bolus vs 30- or 120-minute infusion), the “context dependence of recovery from anesthesia” value was “marked context-dependency”. Further, the “ACTH-induced plasma cortisol response” value in data set [3] (Study 1, dogs, after 120-minute infusion) is given as “markedly inhibited”. Also, the adrenal suppression result in data set [3] (dogs, compared with the other test substances) was “more profound and durable adrenal suppression”. The figures for the “slope of duration of LORR vs logarithm of dose” value in data set [4] and in data set [6] were “approximately 10” and approximately 24, respectively. In addition, the “Octanol/Water Partition Coefficient ± SD” value in data set [5] was 800 ± 180.
